Source: patent US10125118B2, “Heteroaryl compounds and their use as therapeutic drugs” (Dong-A Socio Holdings Co., Ltd., priority 2015, dated 2018)

Columns and labels:
[1] = tested on: CD8-MerTK in Ba/F3-CDM cells; assay: In cell MER kinase assay, Ba/F3-CDM cell proliferation without IL-3 (Celltiter-Glo); assay type: cell-based, murine; conditions: 48 hours compound treatment, read-out: Cell growth inhibition (GI50)
Procedure, shortened: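 Ba/F3 cells, IL-3-dependent, transfected with CD8-MerTK and grown without IL-3 in DMEM/10% FBS. IL-3-supplemented Ba/F3 cells run in parallel as a cytotoxicity control.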

[2] = biological target: human c-MER catalytic domain (Homo sapiens (Human), UniProt Q12866); assay: LanthaScreen TR-FRET kinase assay, c-MER; conditions: read-out: Mer TK inhibition (IC50); Biochemical IC50, TR-FRET, 10 uM ATP
human c-MER catalytic domain, sequence (Q12866 587-858): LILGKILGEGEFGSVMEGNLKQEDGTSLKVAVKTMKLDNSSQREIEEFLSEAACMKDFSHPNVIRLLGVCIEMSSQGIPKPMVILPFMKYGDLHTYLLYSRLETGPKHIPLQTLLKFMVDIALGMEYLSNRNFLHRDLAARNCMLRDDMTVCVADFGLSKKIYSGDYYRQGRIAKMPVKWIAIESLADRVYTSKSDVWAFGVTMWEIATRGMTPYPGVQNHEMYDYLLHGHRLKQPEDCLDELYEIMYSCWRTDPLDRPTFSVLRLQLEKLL

Row | SMILES | GI50 [1] [nM] | IC50 [2] [nM]
1 | CN1CCN(Cc2ccc(-c3ccc(CO[C@H]4CCC[C@@H]4NC(=O)c4cc(-c5ccc(F)cc5)cnc4N)cc3)cc2)CC1 [Example 363, 2-amino-5-(4-fluorophenyl)-N-((1S,2S)-2-((4′-((4-methylpiperazin-1-yl)methyl)-[1,1′-biphenyl]-4-yl)methoxy)cyclopentyl)nicotinamide] | 100 to 500 | < 10
2 | CN1CCN(Cc2ccc(-c3ccc(CO[C@H]4CCC[C@@H]4NC(=O)c4cc(-c5ccc(F)c(F)c5)cnc4N)cc3)cc2)CC1 [Example 364] | < 100 | < 10
3 | CN1CCC(n2cc(-c3cnc(N)c(C(=O)N[C@H]4CCC[C@@H]4OCc4ccc(-c5ccc(CN6CCN(C)CC6)cc5)cc4)c3)cn2)CC1 [Example 366, 2-amino-N-((1S,2S)-2-((4′-((4-methylpiperazin-1-yl)methyl)-[1,1′-biphenyl]-4-yl)methoxy)cyclopentyl)-5-(1-(1-methylpiperidin-4-yl)-1H-pyrazol-4-yl)nicotinamide] | < 100 | < 10
4 | CN1CCN(Cc2ccc(-c3ccc(CO[C@H]4CCC[C@@H]4NC(=O)c4cc(-c5ccc(N6CCN(C)CC6)cc5)cnc4N)cc3)cc2)CC1 [Example 367, 2-amino-N-((1S,2S)-2-((4′-((4-methylpiperazin-1-yl)methyl)-[1,1′-biphenyl]-4-yl)methoxy)cyclopentyl)-5-(4-(4-methylpiperazin-1-yl)phenyl)-nicotinamide] | < 100 | < 10
5 | CN1CCN(Cc2ccc(-c3ccc(CO[C@H]4CCC[C@@H]4NC(=O)c4cc(-c5ccc(CN6CCN(C)CC6)cc5)cnc4N)cc3)cc2)CC1 [Example 368] | < 100 | < 10
6 | CN1CCN(Cc2ccc(-c3ccc(CO[C@H]4CCC[C@@H]4NC(=O)c4cc(-c5ccc(CO)cc5)cnc4N)cc3)cc2)CC1 [Example 369, 2-amino-5-(4-(hydroxymethyl)phenyl)-N-((1S,2S)-2-((4′-((4-methylpiperazin-1-yl)methyl)-[1,1′-biphenyl]-4-yl)methoxy)cyclopentyl)nicotinamide] | < 100 | < 10
7 | Cc1cccc(-c2cnc(N)c(C(=O)N[C@H]3CCC[C@@H]3OCc3ccc(-c4ccc(CN5CCN(C)CC5)cc4)cc3)c2)c1 [Example 370, 2-amino-N-((1S,2S)-2-((4′-((4-methylpiperazin-1-yl)methyl)-[1,1′-biphenyl]-4-yl)methoxy)cyclopentyl)-5-(m-tolyl)nicotinamide] | < 100 | < 10
8 | CN1CCN(Cc2ccc(-c3ccc(CO[C@H]4CCC[C@@H]4NC(=O)c4cc(-c5ccccc5)cnc4N)cc3)cc2)CC1 [Example 371, 2-amino-N-((1S,2S)-2-((4′-((4-methylpiperazin-1-yl)methyl)-[1,1′-biphenyl]-4-yl)methoxy)cyclopentyl)-5-phenylnicotinamide] | < 100 | < 10
9 | CN1CCN(Cc2ccc(-c3ccc(CO[C@H]4CCC[C@@H]4NC(=O)c4cc(-c5ccc(O)cc5)cnc4N)cc3)cc2)CC1 [Example 372] | < 100 | < 10
10 | Cc1cnc(N)c(C(=O)N[C@H]2CCC[C@@H]2OCc2ccc(-c3ccc(CN4CCN(C)CC4)cc3)cc2)c1 [Example 374, 2-amino-5-methyl-N-((1S,2S)-2-((4′-((4-methylpiperazin-1-yl)-methyl)-[1,1′-biphenyl]-4-yl)methoxy)cyclopentyl)nicotinamide] | 100 to 500 | < 10
11 | CN1CCN(Cc2ccc(-c3ccc(CO[C@H]4CCC[C@@H]4NC(=O)c4cc(-c5cccnc5)cnc4N)cc3)cc2)CC1 [Example 375, 6-amino-N-((1S,2S)-2-((4′-((4-methylpiperazin-1-yl)methyl)-[1,1′-biphenyl]-4-yl)methoxy)cyclopentyl)-[3,3′-bipyridine]-5-carboxamide] | < 100 | < 10
12 | COc1ccc(-c2cnc(N)c(C(=O)N[C@H]3CCC[C@@H]3OCc3ccc(-c4ccc(CN5CCN(C)CC5)cc4)cc3)c2)cc1 [Example 376] | < 100 | < 10
13 | CN1CCN(Cc2ccc(-c3ccc(CO[C@H]4CCC[C@@H]4NC(=O)c4cc(-c5ccncc5)cnc4N)cc3)cc2)CC1 [Example 377, 6-amino-N-((1S,2S)-2-((4′-((4-methylpiperazin-1-yl)methyl)-[1,1′-biphenyl]-4-yl)methoxy)cyclopentyl)-[3,4′-bipyridine]-5-carboxamide] | < 100 | < 10
14 | CC1CCN(Cc2ccc(-c3cnc(N)c(C(=O)N[C@H]4CCC[C@@H]4OCc4ccc(-c5ccc(CN6CCN(C)CC6)cc5)cc4)c3)cc2)CC1 [Example 378, 2-amino-N-((1S,2S)-2-((4′-((4-methylpiperazin-1-yl)methyl)-[1,1′-biphenyl]-4-yl)methoxy)cyclopentyl)-5-(4-((4-methylpiperidin-1-yl)methyl)phenyl)-nicotinamide] | < 100 | < 10
15 | CN1CCN(Cc2ccc(-c3ccc(CO[C@H]4CCC[C@@H]4NC(=O)c4cc(-c5ccc(CN6CCOCC6)cc5)cnc4N)cc3)cc2)CC1 [Example 379, 2-amino-N-((1S,2S)-2-((4′-((4-methylpiperazin-1-yl)methyl)-[1,1′-biphenyl]-4-yl)methoxy)cyclopentyl)-5-(4-(morpholinomethyl)phenyl)nicotinamide] | < 100 | < 10
16 | CN1CCN(Cc2ccc(-c3ccc(CO[C@H]4CCC[C@@H]4NC(=O)c4cc(-c5cnn(C6CCOCC6)c5)cnc4N)cc3)cc2)CC1 [Example 380] | < 100 | < 10
17 | CN1CCN(Cc2ccc(-c3ccc(CO[C@H]4CCC[C@@H]4NC(=O)c4cc(-c5ccc(N6CCOCC6)cc5)cnc4N)cc3)cc2)CC1 [Example 381, 2-amino-N-((1S,2S)-2-((4′-((4-methylpiperazin-1-yl)methyl)-[1,1′-biphenyl]-4-yl)methoxy)cyclopentyl)-5-(4-morpholinophenyl)nicotinamide] | < 100 | < 10
18 | COc1ccc(-c2cnc(N)c(C(=O)N[C@H]3CCC[C@@H]3OCc3ccc(-c4ccc(CN5CCN(C)CC5)cc4)cc3)c2)cc1OC [Example 383, 2-amino-5-(3,4-dimethoxyphenyl)-N-((1S,2S)-2-((4′-((4-methylpiperazin-1-yl)methyl)-[1,1′-biphenyl]-4-yl)methoxy)cyclopentyl)nicotinamide] | < 100 | < 10
19 | CN1CCN(Cc2ccc(-c3ccc(CO[C@H]4CCC[C@@H]4NC(=O)c4cc(-c5cc(F)nc(F)c5)cnc4N)cc3)cc2)CC1 [Example 384] | < 100 | < 10
20 | Cc1cscc1-c1cnc(N)c(C(=O)N[C@H]2CCC[C@@H]2OCc2ccc(-c3ccc(CN4CCN(C)CC4)cc3)cc2)c1 [Example 385, 2-amino-N-((1S,2S)-2-((4′-((4-methylpiperazin-1-yl)methyl)-[1,1′-biphenyl]-4-yl)methoxy)cyclopentyl)-5-(4-methylthiophen-3-yl)nicotinamide] | 100 to 500 | < 10
21 | CN1CCN(Cc2ccc(-c3ccc(CO[C@H]4CCC[C@@H]4NC(=O)c4cc(-c5ccc(F)nc5)cnc4N)cc3)cc2)CC1 [Example 386, 6-amino-6′-fluoro-N-((1S,2S)-2-((4′-((4-methylpiperazin-1-yl)methyl)-[1,1′-biphenyl]-4-yl)methoxy)cyclopentyl)-[3,3′-bipyridine]-5-carboxamide] | < 100 | < 10
